Test: Percentage of dimers by gas chromatography over time, 1-MCP/butane 1:1 and negative control
Type: physicochemical
Description: 1-MCP and butane was mixed in liquid form in 1:1 ratio (v/v). Then, the mixture was transferred into the glass container.
Table 18 and FIG. 11 (plot line with circular data points) show the percentage of dimers in the composition as measured by gas chromatography at various points over time. The dotted line is a trend line that extrapolates the 1-MCP/butane plot. A negative control containing only 1-MCP was used for comparison. Table 19 and FIG. 11 (plot line with square data points) show the percentage of dimers in the negative control as measured by gas chromatography at the same points over time that the composition was measured.

Compound: CC1=CC1 [negative control, 1-methylcyclopropene]
- % of dimer (time 1 h): 0.229%
- % of dimer (time 3.75 h): 0.401%
- % of dimer (time 25.75 h): 4.013%
- % of dimer (time 123.5 h): 49.588%
